Data published in US20110223202A1, “CATIONIC CORE-SHELL PEPTIDE NONOPARTICLES” (priority 2007, published 2011).
≈ marks a conversion by molar mass, not a printed value. Like-named read-outs stand apart in the source and are kept apart here. No end group written: not given here.

Assays:
Type in all cases: cell-based
[1] = tested on: Candida albicans; conditions: broth microdilution, no growth observed
Protocol: (§1) Bacillus subtilis, Candida albicans and Stachybotrys chartarum (ATCC) were grown in tryptic soy broth at 37° C., yeast mold broth at 24° C. and tryptic soy broth at 26° C., respectively. The MICs of the peptides or peptide nanoparticles were measured using a broth microdilution method. Briefly, 50 μL of peptide and peptide nanoparticle solutions with a concentration of 7.1 to 142 μM was placed into each well of 96-well plates. 50 μL of microorganism solution was added to each well to give an optical density reading of 0.1 to 0.2 at 600 nm. The cell cultures were then incubated for 15, 12/16 and 170 hours for Bacillus subtilis, Candida albicans and Stachybotrys chartarum respectively, and the MIC was taken at the concentration at which no growth was observed. Broth containing cells alone was used as control. The tests were repeated three times.

[2] = tested on: Bacillus subtilis; experiment: microbe, parasite or virus in culture; conditions: read-out: MIC against Bacillus subtilis
Protocol: as §1, with “The cell cultures were then incubated for 15, 12/16 and 170 hours for Bacillus subtilis, Candida albicans and Stachybotrys chartarum respectively, and the MIC was taken at the concentration at which no growth was observed.” left out

[3] = tested on: Stachybotrys chartarum; experiment: microbe, parasite or virus in culture; conditions: broth microdilution, no growth observed, read-out: MIC against Stachybotrys chartarum
Protocol: as §1

[4] = tested on: rat red blood cells; experiment: Hemolysis assay; conditions: at concentrations lower than its MIC
Protocol: Fresh rat red blood cells were washed with PBS for three times. 100 μL of red blood cells suspended in PBS (4% in volume) was placed in each well of 96-well plates and 100 μL of peptide nanoparticle or amphotericin B solution was added to each well. The plates were incubated for one hour at 37° C. The cell suspensions were taken out and centrifuged at 1000 g for 5 minutes. Aliquots (100 μL) of supernatant were transferred to 96-well plates, and hemoglobin release was monitored at 576 nm using a microplate reader (Bio-Teck Instruments, Inc). Percentage of hemolysis was calculated using the following formula: Hemolysis (%)=[(O.D.576 nm in the nanoparticle solution−O.D.576 nm in PBS)/(O.D.576 nm in 0.1% Triton X-100−O.D.576 nm in PBS)]×100. In vivo studies.

[5] = broth microdilution, no growth observed

For `N=C(N)NCCC[C@H](NC(=O)[C@H](CCCNC(=N)N)NC(=O)[C@H](CCCNC(=N)N)NC(=O)[C@H](CCCNC(=N)N)NC(=O)[C@H](CCCNC(=N)N)NC(=O)[C@H](CCCNC(=N)N)NC(=O)[C@H](CCCNC(=N)N)NC(=O)[C@H](CCCNC(=N)N)NC(=O)[C@H](CCCNC(=N)N)NC(=O)[C@H](CCCNC(=N)N)NC(=O)[C@H](CCCNC(=N)N)NC(=O)[C@H](CCCNC(=N)N)NC(=O)CNC(=O)CNC(=O)CN)C(N)=O` [G3R12], the “MIC against Candida albicans” value [1] was 242.0 µM (≈ 499 µg/mL) and the MIC [2, 5] was 242.0 µM (≈ 499 µg/mL).
Work on `CC1(C)S[C@@H]2[C@H](NC(=O)Cc3ccccc3)C(=O)N2[C@H]1C(=O)O` [penicillin G] yielded an MIC ([2]; FIG. 12, 16 hours of incubation) of 1074 µM (≈ 359 µg/mL).
`OC(Cn1cncn1)(Cn1cncn1)c1ccc(F)cc1F` [fluconazole] was tested, and the MIC ([3]; Stachybotrys chartarum) was > 817 µM.
For `C[C@@H]1[C@H](O)[C@@H](C)/C=C/C=C/C=C/C=C/C=C/C=C/C=C/[C@H](O[C@@H]2O[C@H](C)[C@@H](O)[C@H](N)[C@@H]2O)C[C@@H]2O[C@](O)(C[C@@H](O)C[C@@H](O)[C@H](O)CC[C@@H](O)C[C@@H](O)CC(=O)O[C@H]1C)C[C@H](O)[C@H]2C(=O)O` [amphotericin B], the hemolysis [4] was “more than 90%” and the MIC [3] was > 54.0 µM.
With GGGRRRRRRYGRKKRRQRRR-NH2 [G3R6TAT] the “MIC against Candida albicans” value [1] was 75.0 µM and the MIC [2, 5] was 75.0 µM.
`N=C(N)NCCC[C@H](NC(=O)[C@H](CCCNC(=N)N)NC(=O)[C@H](CCCNC(=N)N)NC(=O)[C@H](CCC(N)=O)NC(=O)[C@H](CCCNC(=N)N)NC(=O)[C@H](CCCNC(=N)N)NC(=O)[C@H](CCCCN)NC(=O)[C@H](CCCCN)NC(=O)[C@H](CCCNC(=N)N)NC(=O)CNC(=O)[C@H](Cc1ccc(O)cc1)NC(=O)CNC(=O)CNC(=O)CN)C(N)=O` [G3TAT] was tested, and the “MIC against Candida albicans” value [1] was 289.0 µM (≈ 500 µg/mL) and the MIC [2, 5] was 290.0 µM (≈ 502 µg/mL).
In the case of `C[C@H]1c2cccc(O)c2C(=O)C2=C(O)[C@]3(O)C(=O)C(C(N)=O)=C(O)[C@@H](N(C)C)[C@@H]3[C@@H](O)[C@@H]21` [doxycycline], the MIC ([2]; Bacillus subtilis, FIG. 12, 16 hours of incubation) is reported as 13.5 µM (≈ 6 µg/mL).
With “GGGRRRRRR-NH2 (C-terminus assumed) [G3R6]” the “MIC against Candida albicans” value [1] was > 444.4 µM and the MIC [2, 5] was > 444.4 µM.
